Test results from patent US9968097B2 (priority 2012, dated 2018).
Counter-ions that a name gives are not always drawn. Like-named read-outs stand apart in the source and are kept apart here.

Assays:
Type in all cases: in vivo
[1] = system: Alternaria solani; experiment: Alternaria test (tomatoes)/preventive; conditions: preventive, evaluated 3 days after inoculation
Text: Alternaria Test (Tomatoes)/Preventive

[2] = system: Phytophthora infestans; conditions: tomatoes, preventive, evaluated 3 days after inoculation
[3] = system: Sphaerotheca fuliginea; experiment: Sphaerotheca test (cucumbers)/preventive; conditions: preventive, evaluated 7 days after inoculation
Text: Sphaerotheca Test (Cucumbers)/Preventive

[4] = system: Botrytis cinerea; experiment: Botrytis test (beans)/preventive; conditions: 10 ppm a.i., preventive, lesion size 2 days after inoculation
Text: Botrytis Test (Beans)/Preventive

[5] = system: Venturia inaequalis; experiment: Venturia test (apples)/preventive; conditions: 100 ppm a.i., preventive, evaluated 10 days after inoculation
Text: Venturia Test (Apples)/Preventive

CCCOC(=O)NCCCN(C)C [F220 propamocarb-HCl, propamocarb hydrochloride]
Efficacy in % found ([1]; Table D1, 200 ppm a.i.): 30%
Efficacy in % found ([2]; 400 ppm a.i.): 3%
Efficacy in % found ([3]; 400 ppm a.i.): 0%

COCC(=O)N(c1c(C)cccc1C)C(C)C(=O)OC (stereo not drawn) [F241 metalaxyl, metalaxyl]
Efficacy in % found ([1]; Table D2, 100 ppm a.i.): 8%

N#Cc1c[nH]cc1-c1cccc2c1OC(F)(F)O2 [F248 fludioxonil, fludioxonil]
Efficacy in % found ([2]; 100 ppm a.i.): 12%
Efficacy in % found ([3]; 100 ppm a.i.): 83%
Efficacy in % found [4]: 87%
Efficacy in % found [5]: 0%

metalaxyl-M (mefenoxam) [F242 mefenoxam]
Efficacy in % found ([1]; Table D2, 100 ppm a.i.): 0%
